Where “and” joins values, the source holds several entries; their conditions need not be identical. Identical values can stand only once.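 Each compound was tested at five concentrations against cells in 96-well plates for 48 hours. GI50 marks 50% less growth. The concentration for full growth arrest is given as TGI.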
What was measured:
Experiment in all cases: growth of human tumour cells (NCI), 48 h
786-0 renal = tested on: 786-0 renal
ACHN renal = tested on: ACHN renal
BT-549 breast = tested on: BT-549 breast
CAKI-1 renal = tested on: CAKI-1 renal
HL-60(TB) leukemia = tested on: HL-60(TB) leukemia
M14 melanoma = tested on: M14 melanoma
MDA-MB-435 = tested on: MDA-MB-435
NCI-H522 lung = tested on: NCI-H522 lung
OVCAR-8 ovarian = tested on: OVCAR-8 ovarian
SK-MEL-2 melanoma = tested on: SK-MEL-2 melanoma

## COc1cc(OC)c(-c2cc(=O)c3c(OC)c(OC)c(OC)c(OC)c3o2)cc1OC
786-0 renal
  TGI: > 100 µM
ACHN renal
  TGI: > 100 µM
BT-549 breast
  TGI: > 100 µM
CAKI-1 renal
  TGI: > 100 µM
HL-60(TB) leukemia
  TGI: > 64.6 µM
M14 melanoma
  TGI: > 100 µM
MDA-MB-435
  TGI: > 100 µM
NCI-H522 lung
  TGI: > 100 µM
OVCAR-8 ovarian
  TGI: > 100 µM
SK-MEL-2 melanoma
  TGI: > 100 µM

## C[C@@H]1O[C@@H](O[C@H]2C[C@@H](O)[C@]3(CO)C4C(CC[C@]3(O)C2)[C@@]2(O)CC[C@H](C3=CC(=O)OC3)[C@@]2(C)C[C@H]4O)[C@H](O)[C@H](O)[C@H]1O (some centres undefined)
786-0 renal
  GI50: 0.018 µM
  TGI: 0.0687 µM
ACHN renal
  GI50: 0.0148 µM
  TGI: 0.0461 µM
BT-549 breast
  GI50: 0.0186 µM
  TGI: 0.0624 µM
CAKI-1 renal
  GI50: 0.0166 µM
  TGI: 0.0679 µM
HL-60(TB) leukemia
  GI50: 0.013 µM
  TGI: 0.0318 µM
M14 melanoma
  GI50: 0.0855 µM
  TGI: 0.166 µM
MDA-MB-435
  GI50: 0.0595 µM
  TGI: 0.134 µM
NCI-H522 lung
  GI50: 0.0117 µM
  TGI: 0.0323 µM
OVCAR-8 ovarian
  GI50: 0.0189 µM
  TGI: 0.0691 µM
SK-MEL-2 melanoma
  GI50: 0.0655 µM
  TGI: 0.17 µM

## O=C1C(=O)c2ccc(Br)cc2-c2cc(Br)ccc21
786-0 renal
  GI50: 10.4 µM
  TGI: > 56.3 µM
ACHN renal
  GI50: 1.52 µM
BT-549 breast
  GI50: 7.69 µM
  TGI: > 95.3 µM
CAKI-1 renal
  GI50: 2.09 µM
  TGI: 9.92 µM
HL-60(TB) leukemia
  GI50: 0.607 µM
  TGI: 1.71 µM
M14 melanoma
  GI50: 6.34 µM
  TGI: > 66.6 µM
MDA-MB-435
  GI50: 1.76 µM
  TGI: 4.07 µM
NCI-H522 lung
  GI50: 0.407 µM
  TGI: 1.74 µM
OVCAR-8 ovarian
  GI50: 0.852 µM
  TGI: 2.57 µM
SK-MEL-2 melanoma
  GI50: 10.4 µM
  TGI: > 100 µM

## Cc1cc(N(CCCl)CCCl)ccc1C=Nc1cccnc1
786-0 renal
  GI50: 6.6 µM
  TGI: > 69.1 µM
ACHN renal
  GI50: 5.38 µM
  TGI: > 100 µM
BT-549 breast
  GI50: 12.8 µM
  TGI: 53.9 µM
CAKI-1 renal
  GI50: 2.46 µM
  TGI: > 43.1 µM
HL-60(TB) leukemia
  GI50: 1.58 µM
  TGI: 30 µM
M14 melanoma
  GI50: 22.5 µM
  TGI: > 100 µM
MDA-MB-435
  GI50: 37.8 µM
  TGI: > 100 µM
NCI-H522 lung
  GI50: 14.3 µM
  TGI: 38.1 µM
OVCAR-8 ovarian
  GI50: 28.3 µM
  TGI: > 100 µM
SK-MEL-2 melanoma
  GI50: 7.57 µM
  TGI: > 50.1 µM

## CN(C(=O)c1ccc(F)cc1C(F)(F)F)C1CCN(c2nnc(-c3ccnn3C)c3ccccc23)CC1
786-0 renal
  GI50: > 100 µM
  TGI: > 100 µM
ACHN renal
  GI50: 51.7 µM
  TGI: > 100 µM
BT-549 breast
  GI50: 33.3 µM
  TGI: > 100 µM
CAKI-1 renal
  GI50: 31.9 µM
  TGI: > 100 µM
HL-60(TB) leukemia
  GI50: 27.3 µM
  TGI: > 84.1 µM
M14 melanoma
  GI50: 46.7 µM
  TGI: > 100 µM
MDA-MB-435
  GI50: 26.6 µM
  TGI: > 100 µM
NCI-H522 lung
  GI50: 16.2 µM
  TGI: > 100 µM
OVCAR-8 ovarian
  GI50: 30.5 µM
  TGI: > 100 µM
SK-MEL-2 melanoma
  GI50: 29.9 µM
  TGI: > 100 µM

## COc1ccc(C(CC(=O)c2ccccc2)C(C(=O)c2ccccc2)C(c2ccc(OC)cc2)C2C(=O)NC(=O)NC2=O)cc1 (centres undefined)
786-0 renal
  GI50: 27.8 µM
  TGI: > 100 µM
ACHN renal
  GI50: 17.9 µM
  TGI: > 100 µM
BT-549 breast
  GI50: 21.9 µM
  TGI: 92.8 µM
CAKI-1 renal
  GI50: 2.85 µM
  TGI: 20.3 µM
HL-60(TB) leukemia
  GI50: 41.2 µM
  TGI: > 100 µM
M14 melanoma
  GI50: 19.8 µM
  TGI: 60.8 µM
MDA-MB-435
  GI50: 19.6 µM
  TGI: > 100 µM
NCI-H522 lung
  GI50: 16.2 µM
  TGI: 72.6 µM
OVCAR-8 ovarian
  GI50: 24.7 µM
  TGI: 68.7 µM
SK-MEL-2 melanoma
  GI50: 38.5 µM
  TGI: > 100 µM

## Brc1c[n+](Cc2ccc3ccccc3c2)cn1Cc1ccc2ccccc2c1
786-0 renal
  GI50: 1.75 µM
  TGI: 3.33 µM
ACHN renal
  GI50: 11.8 µM
  TGI: 25.5 µM
BT-549 breast
  GI50: 1.69 µM
  TGI: 3.18 µM
CAKI-1 renal
  GI50: 2.03 µM
  TGI: 5.17 µM
HL-60(TB) leukemia
  GI50: 1.15 µM
  TGI: 3.68 µM
M14 melanoma
  GI50: 1.4 µM
  TGI: 2.92 µM
MDA-MB-435
  GI50: 1.69 µM
  TGI: 3.22 µM
NCI-H522 lung
  GI50: 1.53 µM
  TGI: 3.85 µM
OVCAR-8 ovarian
  GI50: 1.89 µM
  TGI: 4.55 µM
SK-MEL-2 melanoma
  GI50: 1.81 µM
  TGI: 3.9 µM

## Cc1c(Cl)cccc1NC(=O)CC1Sc2ccccc2NC1=O (centres undefined)
786-0 renal
  TGI: 50.9 µM and 31.7 µM
ACHN renal
  TGI: 63.6 µM and 69.8 µM
BT-549 breast
  TGI: > 100 µM
CAKI-1 renal
  TGI: 77.4 µM and > 100 µM
HL-60(TB) leukemia
  TGI: 54.2 µM and 49.3 µM
M14 melanoma
  TGI: 81.7 µM and 93 µM
MDA-MB-435
  TGI: 9.79 µM
NCI-H522 lung
  TGI: 64.7 µM and 79.7 µM
OVCAR-8 ovarian
  TGI: 33.3 µM and 43.3 µM
SK-MEL-2 melanoma
  TGI: 59.6 µM and 41.9 µM

## c1ccc2c(c1)O[As](O[As]1Oc3ccccc3O1)O2
786-0 renal
  GI50: 3.66 µM
  TGI: 15.4 µM
ACHN renal
  GI50: 6.47 µM
  TGI: 21.4 µM
BT-549 breast
  GI50: 1.22 µM
  TGI: 6.55 µM
CAKI-1 renal
  GI50: 2.56 µM
  TGI: 8.54 µM
HL-60(TB) leukemia
  GI50: 1.49 µM
  TGI: 3.92 µM
M14 melanoma
  GI50: 3.18 µM
  TGI: 15.3 µM
MDA-MB-435
  GI50: 2.8 µM
  TGI: 13.9 µM
NCI-H522 lung
  GI50: 0.548 µM
  TGI: 2.06 µM
OVCAR-8 ovarian
  GI50: 2.59 µM
  TGI: 15.4 µM
SK-MEL-2 melanoma
  GI50: 2.76 µM
  TGI: 8.61 µM

## CO/N=C(\c1ccccc1)c1cnn(-c2ccccc2)c1N
786-0 renal
  GI50: > 25 µM
  TGI: > 25 µM
ACHN renal
  GI50: > 25 µM
  TGI: > 25 µM
BT-549 breast
  GI50: > 25 µM
  TGI: > 25 µM
CAKI-1 renal
  GI50: > 25 µM
  TGI: > 25 µM
HL-60(TB) leukemia
  GI50: > 25 µM
  TGI: > 25 µM
M14 melanoma
  GI50: > 25 µM
  TGI: > 25 µM
MDA-MB-435
  GI50: > 25 µM
  TGI: > 25 µM
NCI-H522 lung
  GI50: > 25 µM
  TGI: > 25 µM
OVCAR-8 ovarian
  GI50: > 25 µM
  TGI: > 25 µM
SK-MEL-2 melanoma
  GI50: > 25 µM
  TGI: > 25 µM

## Cn1cc(-c2cc3c(Nc4ccc(CC(=O)Nc5cc(C(C)(C)C)on5)cc4)ncnc3[nH]2)cn1
786-0 renal
  GI50: 0.995 µM and 0.536 µM
  TGI: 5.05 µM and 4.71 µM
ACHN renal
  GI50: 1.94 µM and 1.71 µM
  TGI: 7.36 µM and 6.4 µM
BT-549 breast
  GI50: 0.925 µM and 0.538 µM
  TGI: 4.12 µM and 3.35 µM
CAKI-1 renal
  GI50: 1.25 µM and 1.1 µM
  TGI: 7.09 µM and 6.93 µM
HL-60(TB) leukemia
  GI50: 1.98 µM and 1.58 µM
  TGI: 6.63 µM and 5.47 µM
M14 melanoma
  GI50: 0.961 µM and 0.69 µM
  TGI: 3.02 µM and 2.3 µM
MDA-MB-435
  GI50: 0.845 µM and 0.944 µM
  TGI: 2.95 µM and 4.29 µM
NCI-H522 lung
  GI50: 0.469 µM and 0.528 µM
  TGI: 3.33 µM and 4.48 µM
OVCAR-8 ovarian
  GI50: 0.893 µM and 0.49 µM
  TGI: 5.06 µM and 4.54 µM
SK-MEL-2 melanoma
  GI50: 0.835 µM and 0.943 µM
  TGI: 2.8 µM and 3.73 µM

## CC1(C)CCC(S(=O)(=O)c2ccc3c(c2)/C(=N\O)c2cc(S(=O)(=O)N4CCC(O)(c5cccc(C(F)(F)F)c5)CC4)ccc2-3)CC1
786-0 renal
  GI50: 0.145 µM
  TGI: 0.36 µM
ACHN renal
  GI50: 0.0431 µM
  TGI: 1.41 µM
BT-549 breast
  GI50: 0.054 µM
  TGI: 0.226 µM
CAKI-1 renal
  GI50: 0.0752 µM
  TGI: 1.14 µM
HL-60(TB) leukemia
  GI50: 0.0203 µM
  TGI: 0.0681 µM
M14 melanoma
  GI50: 0.019 µM
  TGI: 0.0375 µM
MDA-MB-435
  GI50: 0.0283 µM
  TGI: 0.122 µM
NCI-H522 lung
  GI50: 0.0198 µM
  TGI: 0.0452 µM
OVCAR-8 ovarian
  GI50: 0.034 µM
  TGI: 0.112 µM
SK-MEL-2 melanoma
  GI50: 0.0179 µM
  TGI: 0.0364 µM

From PubChem BioAssay (NCI)
